For twelve compounds, logP and solubility results are on record in the OPERA property sets (Mansouri et al. 2018).

As a reminder, the logP is the decadic logarithm of the partition coefficient of the neutral form, usually between octanol and water. Broadly, the solubility is how much of the substance goes into solution per volume.

In brackets after ≈: the same amount, converted by molar mass.

The conditions of the data set: for solubility: 21 °C.

Turning to `CC(=O)Oc1ccccc1C(=O)OCC(=O)N(C)C`, the logP was 0.38.

Consider `CC(=O)Oc1ccccc1C(=O)OCC(=O)NCC(N)=O`, for which the logP is -0.43.

Consider `CC(=O)Oc1ccccc1C(=O)Oc1ccccc1`, for which the logP is 2.88 and the solubility is 78 µM (≈ 20 µg/mL).

In the case of `CCNC(=O)COC(=O)c1ccccc1OC(C)=O`, the logP was 0.9. Consider `CC(=O)Oc1ccccc1C(=O)OCC(=O)N(C(C)C)C(C)C`, for which the logP was 2.03. Same read-out and setting: next, `CC(=O)Oc1ccccc1C(=O)OCC(=O)N(C)CC(N)=O`: -0.46; `CC(=O)OCOC(=O)c1ccccc1OC(C)=O`: 1.42.

In turn, `CC(=O)Nc1ccc(OC(=O)c2ccccc2OC(C)=O)cc1` yielded a logP of 2.15 and a solubility of 63.8 µM (≈ 20 µg/mL). The compound `CCOC(=O)COC(=O)c1ccccc1OC(C)=O` yielded a logP of 1.67.

In turn, `CCOC(=O)CN(C)C(=O)COC(=O)c1ccccc1OC(C)=O` gave a logP of 1.67. Still for that read-out and setting: next, `CC(=O)Oc1ccccc1C(=O)OCS(C)=O` (stereo not given): 0.11. Turning to `CSCOC(=O)c1ccccc1OC(C)=O`, the logP was 1.94 and the solubility turned out to be 2290 µM (≈ 550 µg/mL).
